# Measurements: PubChem BioAssay (NCI)
#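 Method: 48-hour compound exposure of cells in 96-well plates, five concentrations, linear interpolation of endpoints. GI50 marks 50% less growth. TGI: total growth inhibition.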
# Tests used:
# Assay in all cases: NCI-60 cell line screen, 48 h
# [1] = test system: NCI-H23 lung
# [2] = test system: CAKI-1 renal
# [3] = test system: T-47D breast
# [4] = test system: 786-0 renal
# [5] = test system: HL-60(TB) leukemia
# [6] = test system: SNB-19 CNS
# [7] = test system: BT-549 breast
# [8] = test system: A498 renal
# [9] = test system: M14 melanoma
# [10] = test system: PC-3 prostate
# [11] = test system: LOX IMVI melanoma
# [12] = test system: SR leukemia
# [13] = test system: ACHN renal
# [14] = test system: OVCAR-4 ovarian
# [15] = test system: SK-MEL-2 melanoma
# [16] = test system: MALME-3M melanoma
# [17] = test system: U251 CNS
# [18] = test system: IGROV1 ovarian
# [19] = test system: SF-295 CNS
# [20] = test system: MDA-MB-231 breast
# [21] = test system: SW-620 colon
# [22] = test system: RXF 393 renal
# [23] = test system: MCF7 breast
# [24] = test system: HS 578T breast
# [25] = test system: HCC-2998 colon
# [26] = test system: HCT-15 colon
# [27] = test system: K-562 leukemia
# [28] = test system: OVCAR-5 ovarian
# [29] = test system: SNB-75 CNS
# [30] = test system: HOP-92 NSCLC
# [31] = test system: SK-MEL-28 melanoma
# [32] = test system: SK-OV-3 ovarian
# [33] = test system: TK-10 renal
# [34] = test system: UO-31 renal
# [35] = test system: KM12 colon
# [36] = test system: OVCAR-8 ovarian
# [37] = test system: MDA-MB-435
# [38] = test system: HOP-62 NSCLC
# [39] = test system: UACC-257 melanoma
# [40] = test system: SN12C renal
# [41] = test system: SK-MEL-5 melanoma
# [42] = test system: A549 NSCLC
# [43] = test system: HT29 colon
# [44] = test system: COLO 205 colon
# [45] = test system: NCI-H226 lung
# [46] = test system: DU-145 prostate
# [47] = test system: CCRF-CEM leukemia
# [48] = test system: UACC-62 melanoma
# [49] = test system: HCT-116 colon
# [50] = test system: SF-539 CNS
# [51] = test system: SF-268 CNS
# [52] = test system: EKVX NSCLC
# [53] = test system: MOLT-4 leukemia
# [54] = test system: NCI-H460 lung
# [55] = test system: RPMI-8226 leukemia
# [56] = test system: OVCAR-3 ovarian
# [57] = test system: NCI/ADR-RES ovarian
structure (smiles),measurement,setting,value
O=C(Nc1cc(Cl)cc(Cl)c1)Nc1nc2ccc([N+](=O)[O-])cc2s1,GI50,[1],0.378 µM
same,TGI,[1],2.31 µM
same,GI50,[2],0.992 µM
same,TGI,[2],8.47 µM
same,GI50,[3],0.571 µM
same,TGI,[3],6.15 µM
same,GI50,[4],1.47 µM
same,TGI,[4],5.86 µM
same,GI50,[5],0.714 µM
same,TGI,[5],2.86 µM
same,GI50,[6],1.19 µM
same,TGI,[6],25.7 µM
same,GI50,[7],1.68 µM
same,TGI,[7],4.66 µM
same,GI50,[8],0.287 µM
same,TGI,[8],1.04 µM
same,GI50,[9],1.88 µM
same,TGI,[9],5.79 µM
same,GI50,[10],0.568 µM
same,TGI,[10],> 100 µM
same,GI50,[11],0.839 µM
same,TGI,[11],2.44 µM
same,GI50,[12],0.32 µM
same,TGI,[12],2.1 µM
same,GI50,[13],1.37 µM
same,TGI,[13],21.8 µM
same,GI50,[14],0.583 µM
same,TGI,[14],> 100 µM
same,GI50,[15],0.771 µM
same,TGI,[15],3.83 µM
same,GI50,[16],0.518 µM
same,TGI,[16],5.72 µM
same,GI50,[17],0.909 µM
same,TGI,[17],> 100 µM
same,GI50,[18],1.77 µM
same,TGI,[18],84.5 µM
same,GI50,[19],0.524 µM
same,TGI,[19],1.92 µM
same,GI50,[20],1.19 µM
same,TGI,[20],4.12 µM
same,GI50,[21],1.63 µM
same,TGI,[21],85.7 µM
same,GI50,[22],0.558 µM
same,TGI,[22],2.17 µM
same,GI50,[23],0.717 µM
same,TGI,[23],> 100 µM
same,GI50,[24],0.999 µM
same,TGI,[24],4.72 µM
same,GI50,[25],0.503 µM
same,TGI,[25],4.07 µM
same,GI50,[26],0.769 µM
same,TGI,[26],> 100 µM
same,GI50,[27],0.504 µM
same,TGI,[27],> 24.3 µM
same,GI50,[28],2.65 µM
same,TGI,[28],> 100 µM
same,GI50,[29],1.04 µM
same,TGI,[29],3.83 µM
same,GI50,[30],0.212 µM
same,TGI,[30],0.67 µM
same,GI50,[31],1.03 µM
same,TGI,[31],3.58 µM
same,GI50,[32],1.45 µM
same,TGI,[32],5.6 µM
same,GI50,[33],2.21 µM
same,TGI,[33],13.3 µM
same,GI50,[34],0.708 µM
same,TGI,[34],2.8 µM
same,GI50,[35],1.16 µM
same,TGI,[35],7.33 µM
same,GI50,[36],1.74 µM
same,TGI,[36],> 100 µM
same,GI50,[37],1.51 µM
same,TGI,[37],6.77 µM
same,GI50,[38],1.78 µM
same,TGI,[38],5.5 µM
same,GI50,[39],0.95 µM
same,TGI,[39],4.84 µM
same,GI50,[40],0.752 µM
same,TGI,[40],5.62 µM
same,GI50,[41],0.446 µM
same,TGI,[41],1.66 µM
same,GI50,[42],1.7 µM
same,TGI,[42],> 100 µM
same,GI50,[43],1.61 µM
same,TGI,[43],> 100 µM
same,GI50,[44],0.646 µM
same,TGI,[44],2.21 µM
same,GI50,[45],1.04 µM
same,TGI,[45],3.15 µM
same,GI50,[46],1.72 µM
same,TGI,[46],> 100 µM
same,GI50,[47],0.429 µM
same,TGI,[47],3.88 µM
same,GI50,[48],0.569 µM
same,TGI,[48],2.21 µM
same,GI50,[49],0.57 µM
same,TGI,[49],4.76 µM
same,GI50,[50],1.18 µM
same,TGI,[50],5.43 µM
same,GI50,[51],1.61 µM
same,TGI,[51],> 100 µM
same,GI50,[52],1.14 µM
same,TGI,[52],7.63 µM
same,GI50,[53],0.685 µM
same,TGI,[53],3.23 µM
same,GI50,[54],1.48 µM
same,TGI,[54],> 100 µM
same,GI50,[55],0.376 µM
same,TGI,[55],1.59 µM
same,GI50,[56],0.722 µM
same,TGI,[56],8.2 µM
same,GI50,[57],0.8 µM
same,TGI,[57],6.2 µM
IP(CCCSc1n(Cc2ccc3ccccc3c2)c(-c2ccccc2)c(-c2ccccc2)[n+]1Cc1ccc2ccccc2c1)(c1ccccc1)(c1ccccc1)c1ccccc1,GI50,[1],2.34 µM
same,TGI,[1],7.13 µM
same,GI50,[2],9.96 µM
same,TGI,[2],31.7 µM
same,GI50,[3],2.89 µM
same,TGI,[3],14.1 µM
same,GI50,[4],5.81 µM
same,TGI,[4],40.1 µM
same,GI50,[5],1.9 µM
same,TGI,[5],3.86 µM
same,GI50,[6],2.39 µM
same,TGI,[6],16.7 µM
same,GI50,[7],2.6 µM
same,TGI,[7],7.25 µM
same,GI50,[8],3.88 µM
same,TGI,[8],29.4 µM
same,GI50,[9],3.34 µM
same,TGI,[9],23 µM
same,GI50,[10],2.84 µM
same,TGI,[10],10.8 µM
same,GI50,[11],1.94 µM
same,TGI,[11],4.49 µM
same,GI50,[13],20.2 µM
same,TGI,[13],96.4 µM
same,GI50,[14],3.16 µM
same,TGI,[14],22.5 µM
same,GI50,[15],2.05 µM
same,TGI,[15],5.41 µM
same,GI50,[16],2.37 µM
same,TGI,[16],8.23 µM
same,GI50,[17],3.26 µM
same,TGI,[17],> 100 µM
same,GI50,[18],2.96 µM
same,TGI,[18],> 100 µM
same,GI50,[19],3.3 µM
same,TGI,[19],16.2 µM
same,GI50,[20],2.81 µM
same,TGI,[20],9.58 µM
same,GI50,[21],3.56 µM
same,TGI,[21],21.9 µM
same,GI50,[22],2.8 µM
same,TGI,[22],9.44 µM
same,GI50,[23],2.77 µM
same,TGI,[23],9 µM
same,GI50,[24],3.04 µM
same,TGI,[24],14.1 µM
same,GI50,[25],3.74 µM
same,TGI,[25],16.3 µM
same,GI50,[26],19.6 µM
same,TGI,[26],> 100 µM
same,GI50,[27],3.05 µM
same,TGI,[27],10.4 µM
same,GI50,[28],3.59 µM
same,TGI,[28],17.4 µM
same,GI50,[29],2.03 µM
same,TGI,[29],9.21 µM
same,GI50,[30],1.69 µM
same,TGI,[30],6.48 µM
same,GI50,[31],3.25 µM
same,TGI,[31],15.9 µM
same,GI50,[32],3.9 µM
same,TGI,[32],38.4 µM
same,GI50,[33],8.12 µM
same,TGI,[33],59 µM
same,GI50,[34],5.55 µM
same,TGI,[34],> 100 µM
same,GI50,[35],2.45 µM
same,TGI,[35],6.23 µM
same,GI50,[36],5.62 µM
same,TGI,[36],> 100 µM
same,GI50,[37],2.84 µM
same,TGI,[37],11 µM
same,GI50,[38],3.3 µM
same,TGI,[38],23.4 µM
same,GI50,[39],2.89 µM
same,TGI,[39],9.64 µM
same,GI50,[40],4.07 µM
same,TGI,[40],17.4 µM
same,GI50,[41],2.42 µM
same,TGI,[41],5.91 µM
same,GI50,[42],4.49 µM
same,TGI,[42],36.1 µM
same,GI50,[43],2.52 µM
same,TGI,[43],7.14 µM
same,GI50,[45],12.2 µM
same,TGI,[45],98.2 µM
same,GI50,[46],3.57 µM
same,TGI,[46],23.9 µM
same,GI50,[47],3.11 µM
same,TGI,[47],12 µM
same,GI50,[48],2.35 µM
same,TGI,[48],7.91 µM
same,GI50,[49],2.99 µM
same,TGI,[49],10.6 µM
same,GI50,[50],3.08 µM
same,TGI,[50],9.57 µM
same,GI50,[51],3.42 µM
same,TGI,[51],20.3 µM
same,GI50,[52],4.43 µM
same,TGI,[52],43.1 µM
same,GI50,[53],3.05 µM
same,TGI,[53],11.5 µM
same,GI50,[54],2.53 µM
same,TGI,[54],6.25 µM
same,GI50,[55],2.49 µM
same,TGI,[55],6.81 µM
same,GI50,[56],2.81 µM
same,TGI,[56],8.86 µM
same,GI50,[57],17.3 µM
same,TGI,[57],> 100 µM
